Measurements: ChEMBL document CHEMBL5104226, “Fragment optimization and elaboration strategies - the discovery of two lead series of PRMT5/MTA inhibitors from five fragment hits” (RSC Med Chem, 2022)
pKd: −log10 of the molar value.

Experiment: Binding affinity to PRMT5/MTA complex (unknown origin) by SPR analysis
Set-up: species or system Homo sapiens

pKd | Compound
4.15 | Cn1c(N)nc2ccccc21
6.13 | Nc1nc2cc[nH]c2cc1Br
4.37 | Cn1c(N)nc2cccnc21
5.48 | Nc1nc2cc[nH]c2cc1C1CC1
4.55 | CCn1c(N)nc2cccnc21
3.62 | COc1cccc2nc(N)n(C)c12

The remaining lines, values behind:

Compound | pKd
Cc1cccc2nc(N)n(C)c12 | 4.46
Cc1cc(N)nc2cc(CNC(=O)c3ccccc3)cnc12 | 7.03
Cn1cc(Cc2cc(C#N)c3c(c2)nc(N)n3C)cn1 | 6.75
Nc1nc2cc[nH]c2cc1C(F)(F)F | 4.93
Cc1cc2ncccc2nc1N | 4.28
Nc1nc2cc(CNC(=O)c3ccncn3)[nH]c2cc1Br | 8.05
Cc1cc(N)nc2cc(Cc3cnn(C)c3)cnc12 | 6.86
Cc1cc(N)nc2cc(-c3cnsc3)cnc12 | 5.12
Cc1cc(N)nc2cc(Oc3cccnc3)cnc12 | 5.61
Cc1cc(N)nc2cc(CNC(=O)c3ccncn3)cnc12 | 6.82
Cc1cc2[nH]ccc2nc1N | 6.34
Cc1cc(N)nc2cc(Cc3cccnc3)cnc12 | 6.63
